# In article PMC12509308, “Stereochemistry and Charged State Influence Effector Outcomes of D‑2-Hydroxyglutarate Dehydrogenase Ligands” (Biochemistry, 2025):
# T1: PaD2HGDH (Pseudomonas aeruginosa, UniProt Q9I6H4)
# T1 construct: gene PA0317; full-length wild type, C-terminal 6x-His tag kept, pET20b(+), expressed in E. coli Rosetta(DE3)pLysS, Ni-NTA purified
# T1 sequence (Q9I6H4 1-464): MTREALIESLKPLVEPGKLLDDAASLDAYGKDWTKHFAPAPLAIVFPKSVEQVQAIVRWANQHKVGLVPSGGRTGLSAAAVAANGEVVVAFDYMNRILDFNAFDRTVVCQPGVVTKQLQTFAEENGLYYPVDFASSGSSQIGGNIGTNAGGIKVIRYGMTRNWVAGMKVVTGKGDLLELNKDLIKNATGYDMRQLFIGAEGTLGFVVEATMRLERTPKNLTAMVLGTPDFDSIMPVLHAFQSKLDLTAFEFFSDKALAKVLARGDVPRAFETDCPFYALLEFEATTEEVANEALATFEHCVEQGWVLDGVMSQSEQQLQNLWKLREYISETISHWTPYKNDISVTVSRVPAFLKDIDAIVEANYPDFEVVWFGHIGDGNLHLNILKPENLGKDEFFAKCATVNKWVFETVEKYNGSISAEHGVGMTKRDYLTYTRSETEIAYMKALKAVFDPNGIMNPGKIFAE
# B1: PaD2HGDH (Pseudomonas aeruginosa PAO1) (protein)
# chain: T1 sequence (Q9I6H4 1-464)
# notes: full-length wild type, C-terminal 6x-His tag kept, pET20b(+), expressed in E. coli Rosetta(DE3)pLysS, Ni-NTA purified
# Tests used:
# [1] = target: T1, PaD2HGDH; assay: PMS-driven oxygen consumption, initial rates, steady-state inhibition; format: biochemical; conditions: read-out: Kis
# From the text: PMS-driven oxygen consumption, initial rates, steady-state inhibition on PaD2HGDH
# [2] = substrate: O=C(O)C[C@@H](O)C(=O)O; assay: PMS-driven oxygen consumption, initial rates, global fit of inhibition data; format: biochemical, Pseudomonas aeruginosa; conditions: fitted in the oxaloacetate inhibition assay (Ka extrapolated to no inhibitor), D-malate 1-60 mM, 1 mM PMS, 25 mM NaPO4 pH 7.4, 25 °C
# From the text: PMS-driven oxygen consumption, initial rates, global fit of inhibition data on PaD2HGDH
Molecule,Ki [1] [mM],Km [2] [mM],kcat [2] [s⁻¹]
"O=C(O)C(O)c1ccc(O)c(O)c1 (racemic) [D/L-3,4-Dihydroxymandelate]",4.1 ± 0.3,–,–
O=C(O)C(O)c1ccc(O)cc1 (racemic) [D/L-4-Hydroxymandelate],6.5 ± 0.7,–,–
O=C(O)CC(C(=O)O)C(O)C(=O)O (racemic) [D/L-Isocitrate],7.8 ± 0.4,–,–
O=C(O)CCC(=O)C(=O)O [2-Ketoglutarate],4.3 ± 0.3,–,–
O=C(O)[C@H](O)c1ccccc1 [D-Mandelate],18.4 ± 0.6,–,–
O=C(O)CC[C@H](O)C(=O)O [L-2-Hydroxyglutarate],4.1 ± 0.4,–,–
O=C(O)C[C@H](O)C(=O)O [L-Malate],14.6 ± 1.5,–,–
O=C(O)CC(=O)C(=O)O [Oxaloacetate],2.02 ± 0.03,–,–
O=C(O)C(O)C(=O)O [Tartronate],18.6 ± 1.3,–,–
B1,–,8.4 ± 0.1,29.1 ± 0.1
